Reference: patent US7217409B2, “Alkanoic acid derivatives” (SmithKline Beecham Corporation, priority 2000, dated 2007)

Experiments:
[1] = Mean particle size of salmeterol xinafoate/HFA 134a suspension by image analysis (Galai CIS-100 particle size analyser); assay type: physicochemical; settings: for Mean Length: salmeterol xinafoate in HFA 134a, 25 μg per actuation, 10% w/w (relative to drug) of surfactant compound, crimped glass bottles, equivalent diameter, average of 4 determinations; for spread of the range of particles size: salmeterol xinafoate in HFA 134a with 10% w/w surfactant compound, versus control without surfactant
Method: Salmeterol xinafoate formulations in HFA 134a, of strength 25 μg per actuation, and 10% w/w (relative to drug) of the relevant surfactant compound of formula (I) were prepared in crimped glass bottles using salmeterol xinafoate (8.7 mg), HFA 134a (18 g) and the relevant compound (0.87 mg). The control was prepared without the addition of a surfactant. […] In this measurement, particle size is represented as the equivalent diameter of a circle of equal area to the object. The mean is the average of 4 determinations. The particle size measurement was obtained by transferring the suspensions to a pressurised cell, and video-imaging the sample under shear via a microscope objective. The equivalent diameter is defined as the diameter of a circle of equal area to the object.
The mean equivalent diameter can be weighted by number, length or volume. e.g. For three particles with equivalent diameters of x, y and z:
This is seen by the marked reduction in average particle size (“mean length”) when a compound of formula (I) is incorporated into the formulation. Futhermore the spread of the range of particles size was reduced in some cases (especially Examples 5 and 7).

[2] = Emitted dose and fine particle mass by Anderson Cascade Impactor stack; assay type: physicochemical; settings: salmeterol xinafoate in HFA 134a, 25 μg per actuation, 10% w/w surfactant compound, aluminum canisters; beginning of use; mean of two determinations
Method: Data were obtained at the beginning of use of the device. Salmeterol xinafoate formulations in HFA 134a, of strength 25 μg per actuation, and 10% w/w (relative to drug) of the relevant surfactant compound of formula (I) were prepared in standard aluminum canisters. Control 1 was prepared at the same time as samples containing examples 2, 5, 6 and 7 whereas control 2 was prepared separately. The analysis of aerosol formulations using such stacks is well known to person skilled in the art. The results are presented as the mean of two determinations.
These samples also show an increase in the absolute value of the FPM fraction in most cases.

Row | Mean Length [1] [μm] | % FPM [2] [%] | FPM (fine particle mass, sum of stages 3 to 5) [2] [µg] | Total Dose Emitted [2] [µg] | Total Emitted Ex-Device [2] [µg] | spread of the range of particles size [1] | Structure (SMILES)
1 | 27.1 | 38.8 | 8.7 | 22.4 | 18.8 | – | COCCOCCOCCOCCOCCOCCOCC(=O)O [Example 2, 2,5,8,11,14,17,20-Heptaoxadocosan-22-oic acid]
2 | 23.8 | 37.2 | 8.6 | 23.0 | 19.4 | reduced | O=C(O)COCCOCCOCCOCCOCCOCCOCC(F)(F)F [Example 5, 23,23,23-Trifluoro-3,6,9,12,15,18,21-heptaoxatricosan-1-oic acid]
3 | 23.7 | 33.2 | 7.1 | 21.4 | 17.9 | – | O=C(O)COCCOCCOCC(F)(F)F [Example 6, {[2-({2-[(2,2,2-Trifluoroethyl)oxy]ethyl}oxy)ethyl]oxy}acetic acid]
4 | 28.6 | 38.7 | 8.5 | 21.9 | 18.4 | reduced | COCCOCCOCCOCCOCCOCCOCCOCCOCCOCC(=O)O [Example 7, 2,5,8,11,14,17,20,23,26,29-Decaoxahentriacontan-31-oic acid]
